# Results published in patent publication US9944666B2, “Compounds that are S1P modulating agents and/or ATX modulating agents” (BIOGEN MA INC., priority 2012, dated 2018).
# Target: T1, human S1P4 (Homo sapiens, UniProt O95977)
# T1 construct: host or cells: recombinant CHEM cells
# T1 sequence (O95977 1-384): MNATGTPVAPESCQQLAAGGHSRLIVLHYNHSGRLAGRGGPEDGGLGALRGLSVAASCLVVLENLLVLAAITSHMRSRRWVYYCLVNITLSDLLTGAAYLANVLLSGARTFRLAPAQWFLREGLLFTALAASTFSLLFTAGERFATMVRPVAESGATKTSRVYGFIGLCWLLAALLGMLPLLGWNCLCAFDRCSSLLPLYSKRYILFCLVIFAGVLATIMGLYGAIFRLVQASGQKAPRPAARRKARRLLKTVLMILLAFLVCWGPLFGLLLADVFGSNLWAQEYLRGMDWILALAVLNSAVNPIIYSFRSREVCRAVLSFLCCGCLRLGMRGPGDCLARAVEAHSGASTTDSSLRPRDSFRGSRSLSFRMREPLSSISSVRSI
# Experiment: S1P receptor calcium mobilization assay, antagonist format
# Format: cell-based
# Details: recombinant CHEM cells expressing human S1P4; calcium flux, FLIPR; stimulated with EC80 of reference agonist
# Protocol: (§1) Compounds that are not specific for a particular S1P receptor can cause undesirable side effects. Accordingly, compounds are tested to identify those that are specific. Accordingly, the test compounds are tested in a calcium mobilization assay/S1P receptor activity assay. The procedure is essentially as described in Davis et al. (2005) Journal of Biological Chemistry, vol. 280, pp. 9833-9841, which is incorporated by reference in its entirety with the following modifications. Calcium mobilization assays are performed in recombinant CHEM cells expressing human S1P1, S1P2, S1P3, S1P4, or S1P5 purchased from Millipore (Billerica, Mass.). To detect free intracellular calcium, S1P1, S1P2, S1P3, S1P4, or S1P5 cells are loaded with FLIPR Calcium 4 dye from Molecular Devices (Sunnyvale, Calif.). Cells are imaged for calcium mobilization using a FLIPR^TERA equipped with a 96-well dispense head.
# Agonist percentage activation determinations were obtained by assaying sample compounds and referencing the Emax control for each receptor profiled. Antagonist percentage inhibition determinations were obtained by assaying sample compounds and referencing the control EC80 wells for each receptor profiled.
# Sample compounds were plated in an eight-point, four-fold dilution series in duplicate with a top concentration of 10 μM. The concentrations described here reflect the final concentration of the compounds during the antagonist assay. During the agonist assay the compound concentrations were 1.25 fold higher to allow for the final desired concentration to be achieved with further dilution by EC80 of reference agonists during the antagonist assay.
# Reference agonists were handled as mentioned above serving as assay control. The reference agonists were handled as described above for Emax.
# Assay was read for 180 seconds using the FLIPR^TETRA (This assay run added sample compounds and reference agonist to respective wells). At the completion of the first “Single Addition” assay run, assay plate was removed from the FLIPR^TETRA and placed at 25° C. for seven (7) minutes.
# Using the EC80 values determined during the agonist assay, stimulated all pre-incubated sample compound and reference antagonist (if applicable) wells with EC80 of reference agonist. Read for 180 seconds using the FLIPR^TETRA (This assay added reference agonist to respective wells-then fluorescence measurements were collected to calculate percentage inhibition values).
row,IC50,SMILES
1,≤ 250 nM,"O=C(O)C12CCC(NCc3ccc4cc(OC5CCC6(CCCCC6)CC5)ccc4c3)(CC1)CC2 [Example 11, 4-(((6-(spiro[5.5]undecan-3-yloxy)naphthalen-2-yl)methyl)amino)bicyclo[2.2.2]octane-1-carboxylic acid]"
2,≤ 250 nM,"CC(C)(C)[C@H]1CC[C@H](Oc2ccc3cc(CNC45CCC(C(=O)O)(CC4)C(O)C5)ccc3c2)CC1 (stereo partly drawn) [Example 80, 4-((6-(trans-4-tert-Butylcyclohexyloxy)naphthalen-2-yl)methylamino)-2-hydroxybicyclo[2.2.2]octane-1-carboxylic acid]"
3,≤ 500 nM,"CC(C)(C)[C@H]1CC[C@H](Oc2ccc3cc(CN4CCN(c5ccncc5)CC4)ccc3c2)CC1 [Example 46, 1-((6-((trans-4-(tert-butyl)cyclohexyl)oxy)naphthalen-2-yl)methyl)-4-(pyridin-4-yl)piperazine]"
4,≤ 250 nM,"CC(C)[C@H]1CC[C@H](Oc2ccc3cc(CNC45CCC(C(=O)O)(CC4)CC5)ccc3c2)CC1 [Example 4, 4-(((6-((trans-4-isopropylcyclohexyl)oxy)naphthalen-2-yl)methyl)amino)bicyclo[2.2.2]octane-1-carboxylic acid]"
5,≤ 500 nM,"CC(C)(C)[C@H]1CC[C@H](Oc2ccc3cc(CN4CC5(COC5)C4)ccc3c2)CC1 [Example 67, 6-((6-((trans-4-(tert-butyl)cyclohexyl)oxy)naphthalen-2-yl)methyl)-2-oxa-6-azaspiro[3.3]heptane]"
6,≤ 100 nM,"CC(C)(C)[C@H]1CC[C@H](Oc2ccc3cc(CN4CC(C5CCCC(C(=O)O)C5)C4)ccc3c2)CC1 (stereo partly drawn) [Example 58, 3-(1-((6-((trans-4-(tert-butyl)cyclohexyl)oxy)naphthalen-2-yl)methyl)azetidin-3-yl)cyclohexanecarboxylic acid]"
7,≤ 500 nM,"CC(C)(C)[C@H]1CC[C@H](Oc2ccc3cc(CN4CCN(c5ncccn5)CC4)ccc3c2)CC1 [Example 44, 2-(4-((6-((trans-4-(tert-butyl)cyclohexyl)oxy)naphthalen-2-yl)methyl)piperazin-1-yl)pyrimidine]"

row,SMILES,IC50
1,"CC(C)(C)[C@H]1CC[C@H](Oc2ccc3cc(CN4CC5CC(C4)C5C(=O)O)ccc3c2)CC1 (stereo partly drawn) [Example 74, 3-((6-((trans-4-(tert-butyl)cyclohexyl)oxy)naphthalen-2-yl)methyl)-3-azabicyclo[3.1.1]heptane-6-carboxylic acid]",≤ 100 nM

# Target: T1, human S1P4
# Experiment: S1P receptor calcium mobilization assay, agonist format
# Format: cell-based
# Details: recombinant CHEM cells expressing human S1P4, calcium flux, FLIPR
# Protocol: as §1
# Agonist percentage activation determinations were obtained by assaying sample compounds and referencing the Emax control for each receptor profiled. Antagonist percentage inhibition determinations were obtained by assaying sample compounds and referencing the control EC80 wells for each receptor profiled. […]
# Assay was read for 180 seconds using the FLIPR^TETRA (This assay run added sample compounds and reference agonist to respective wells). […]
row,IC50,SMILES
1,≤ 500 nM,"CC1(C)CCC(Oc2ccc3cc(CN4CC(C5CCCC(C(=O)O)C5)C4)ccc3c2)CC1 (stereo not shown) [Example 62, 3-(1-((6-((4,4-dimethylcyclohexyl)oxy)naphthalen-2-yl)methyl)azetidin-3-yl)cyclohexanecarboxylic acid]"

# Target: T2, Human ATX protein (Homo sapiens, UniProt Q13822)
# T2 construct: made in house
# Experiment: ATX biochemical FRET assay with FS-3 substrate
# Details: FS-3 2 μM, ATX 1.0 μg/mL, room temperature 2 hours, fluorescence 485/538 nm
# Outline: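 Purified human ATX (1.0 μg/mL final) preincubated with compound 30 min at room temperature in Tris pH 7.4 buffer with NaCl, KCl, CaCl2, MgCl2 and 1 mg/mL fatty acid-free BSA. FS-3 added to 2 μM final; 2 h at room temperature in the dark, fluorescence at ex 485/em 538 nm.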
row,SMILES,IC50
1,"O=C(O)C1CC2CCCC(C1)N2Cc1ccc2c(Cl)c(O[C@H]3CC[C@@H](C(F)(F)F)CC3)ccc2c1 (stereo partly drawn) [Example 111, 9-((5-Chloro-6-((cis-4-(trifluoromethyl)cyclohexyl)oxy)naphthalen-2-yl)methyl)-9-azabicyclo[3.3.1]nonane-3-carboxylic acid]",≤ 250 nM
2,"O=C(O)C1CCCC2CCN(Cc3ccc4c(C(F)(F)F)c(O[C@H]5CC[C@@H](C(F)(F)F)CC5)ccc4c3)CC21 (relative stereo) [Example 150, N-((5-(trifluoromethyl)-6-((cis-4-(trifluoromethyl)cyclohexyl)oxy)naphthalen-2-yl)methyl)-decahydroisoquinoline-8-carboxylic acid]",≤ 250 nM
3,"O=C(O)C1CC2CCC(C1)N2C(=O)c1ccc2c(C(F)(F)F)c(N[C@H]3CC[C@@H](C(F)(F)F)CC3)ccc2c1 (stereo partly drawn) [Example 190, 8-(5-(trifluoromethyl)-6-((cis-4-(trifluoromethyl)cyclohexyl)amino)-2-naphthoyl)-8-azabicyclo[3.2.1]octane-3-carboxylic acid]",≤ 100 nM
4,"C[C@H]1CC[C@@H](Oc2ccc3cc(CN4C5CCCC4CC(C(=O)O)C5)ncc3c2Br)CC1 (stereo partly drawn) [Example 279, 9-((8-bromo-7-((cis-4-methylcyclohexyl)oxy)isoquinolin-3-yl)methyl)-9-azabicyclo[3.3.1]nonane-3-carboxylic acid]",≤ 500 nM
